{"source": "patent US20080176787A1", "about": "“Parathyroid hormone analogues and methods of use” (priority 2005, published 2008)", "assay": "Phase II pharmacokinetic evaluation of subcutaneous Ostabolin-C (Baseline and Week 12 subset)", "assay_type": "in vivo, human", "design": "AUC(0-24): unit: pg·h/mL", "experimental": "The objective of this portion of the study was to evaluate the pharmacokinetics of Ostabolin-C under steady state conditions when given subcutaneously (sc) once a day to post-menopausal female subjects with low bone mineral density.\nAfter Screening procedures and a 2-week placebo run-in phase, subjects were to be dosed once a day for 16 weeks with either Placebo or Ostabolin-C (7.5, 15, 30 or 45 μg). A subset of subjects from all treatment groups had blood collected for measurements of Ostabolin-C in order to determine PK parameters and compare them to prior studies.\nThe full study duration of the study was 22 weeks, which included a 6-week screening period involving a 2-week placebo run-in and then 16 weeks of treatment. The subset of subjects for this component of the study was treated the same as all other subjects with the exception of the additional blood collections at baseline and Week 12.\nAll of the values from the Placebo subject except one (Baseline 2 hour time-point) were below the assay level of detection (i.e., 10 pg/ml). With very limited exceptions, all values from Placebo subjects in prior trials have also been below the levels of detection. Thus, this one value was considered to be a laboratory error and PK parameters for this placebo subject were not calculated.\nNo samples were obtained for Pre-dose at either Baseline or Week 12. In all prior studies, pre-treatment values have been below the levels of detection and 24-hour time points at doses of 40 ug and below have been below the levels of detection. Thus, no observable values were anticipated and for calculating PK the pre-treatment values for Baseline visit were set to zero.\nFor pre-dose at Week 12, it was also anticipated that the values would be below the levels of detection based on prior studies and that the 24-hour post dose value would verify this. Only two 24-hour time-point values were above the level of detection; i.e. 24 hours post dosing at Baseline for Subject 030-003 and 24 hours post dosing at Week 12 for Subject 030-0004. The values of both of these 24-hour time-points were marginally above the assay level of detection. Also, both of these subjects had values below the levels of detection for both the 4 hour and 6 hour time-points after dosing on the prior day. Thus, these values are most likely artifacts and not real values. No valid 24 hour sample for subject 032-0001 at Week 12 was obtained. […] Thus, for calculating PK parameters, the Pre-dose values for Week 12 were also set to zero.\nThe pharmacokinetic parameters that were estimated at Baseline and Week 12 are as follows:\nAUC values were estimated by a simple summation of trapezoidal areas from each time period. Data from each dose group were summarized using simple statistics on an Excel® spreadsheet; i.e., average (AVG) and Standard Deviation (STD). It should be noted that particularly with the lower doses and associated low blood levels and at late time points, those values just above versus just below the assay limits of detection can have a disproportionate impact to AUC calculations. This adds to that variability of the calculated numbers.", "key": {"[1]": {"conditions": "Baseline, 7.5 ug, individual subjects, in pg·h/mL"}, "[2]": {"conditions": "Baseline, 15 ug, individual subjects, in pg·h/mL"}, "[3]": {"conditions": "Baseline, 45 ug, individual subjects, in pg·h/mL"}, "[4]": {"conditions": "Week 12, 7.5 ug, individual subjects, in pg·h/mL"}, "[5]": {"conditions": "Week 12, 30 ug, individual subjects, in pg·h/mL"}}, "note": "Values joined by “and” are separate entries in the source; they are usually repeats but may differ in a detail not shown here. Equal entries are not always repeated. Where two headings read alike, the source gives them in different places. Positions of bridges follow the written chain, without caps; N, C: chain ends. Residues, ends and D or L forms follow the SMILES beside them."}
{"smiles": "CC[C@H](C)[C@H](NC(=O)[C@H](CCC(=O)O)NC(=O)[C@H](CO)NC(=O)[C@@H](NC(=O)[C@@H](N)CO)C(C)C)C(=O)N[C@@H](CCC(N)=O)C(=O)N[C@@H](CC(C)C)C(=O)N[C@@H](CCSC)C(=O)N[C@@H](Cc1c[nH]cn1)C(=O)N[C@@H](CC(N)=O)C(=O)N[C@@H](CC(C)C)C(=O)NCC(=O)N[C@@H](CCCCN)C(=O)N[C@@H](Cc1c[nH]cn1)C(=O)N[C@@H](CC(C)C)C(=O)N[C@@H](CC(N)=O)C(=O)N[C@@H](CO)C(=O)N[C@@H](CCSC)C(=O)N[C@@H](CCC(=O)O)C(=O)N[C@@H](CCCN=C(N)N)C(=O)N[C@H](C(=O)N[C@H]1CCC(=O)NCCCC[C@@H](C(=O)N[C@@H](CC(C)C)C(=O)N[C@@H](CC(C)C)C(=O)N[C@@H](CCC(N)=O)C(=O)N[C@@H](CC(=O)O)C(=O)N[C@H](C(N)=O)C(C)C)NC(=O)[C@H](CCCN=C(N)N)NC(=O)[C@H](CC(C)C)NC(=O)[C@H](Cc2c[nH]c3ccccc23)NC1=O)C(C)C", "note": "[Ostabolin-C, [Leu^27]cyclo[Glu^22-Lys^26]-PTH-(1-31)-NH2] (H-SVSEIQLMHNLGKHLNSMERVEWLRKLLQDV-NH2; lactam 22-26)", "values": [{"measurement": "Tmax", "setting": "Baseline, 7.5 ug, individual subjects", "value": 1.00}, {"measurement": "Cmax", "setting": "Baseline, 7.5 ug, individual subjects, in pg/mL", "value": "27.75 and 33.15"}, {"measurement": "AUC(0-4)", "setting": "[1]", "value": "11.71 and 16.25 and 88.35"}, {"measurement": "AUC(0-24)", "setting": "[1]", "value": "11.71 and 16.25 and 99.67"}, {"measurement": "Cmax", "setting": "Baseline, 15 ug, individual subjects, in pg/mL", "value": "57.54 and 46.59"}, {"measurement": "AUC(0-4)", "setting": "[2]", "value": "82.31 and 74.38"}, {"measurement": "AUC(0-24)", "setting": "[2]", "value": "82.31 and 74.38"}, {"measurement": "Cmax", "setting": "Baseline, 45 ug, individual subjects, in pg/mL", "value": "114.54 and 233.33"}, {"measurement": "AUC(0-4)", "setting": "[3]", "value": 344.39}, {"measurement": "AUC(0-24)", "setting": "[3]", "value": 370.47}, {"measurement": "Cmax", "setting": "Week 12, 7.5 ug, individual subjects, in pg/mL", "value": "37.84 and 40.38"}, {"measurement": "AUC(0-4)", "setting": "[4]", "value": "28.83 and 64.83"}, {"measurement": "AUC(0-24)", "setting": "[4]", "value": "28.83 and 64.83"}, {"measurement": "AUC(0-24)", "setting": "Week 12, 15 ug, individual subjects", "value": "164.36 and 54.29* and 110.80"}, {"measurement": "Cmax", "setting": "Week 12, 15 ug, individual subjects, in pg/mL", "value": "41.98 and 33.33 and 69.33"}, {"measurement": "AUC(0-4)", "setting": "Week 12, 15 ug, individual subjects, in pg·h/mL", "value": "68.69 and 54.29 and 110.80"}, {"measurement": "Cmax", "setting": "Week 12, 30 ug, individual subjects, in pg/mL", "value": 46.75}, {"measurement": "AUC(0-4)", "setting": "[5]", "value": "142.45 and 70.73"}, {"measurement": "AUC(0-24)", "setting": "[5]", "value": 214.03}, {"measurement": "accumulation", "setting": "after 12 weeks of dosing", "value": "no evidence of accumulation"}, {"measurement": "Tmax", "setting": "female, human, blood, sc, 7.5 ug, Baseline, 7.5 ug, AVG, read-out: Tmax", "value": 30, "unit": "min"}, {"measurement": "AUC(0-t)", "setting": "female, human, blood, sc, 7.5 ug, Dose 7.5, mean of Baseline and Week 12 data, read-out: AUC(0-4)", "value": 0.0365, "unit": "ng·h/mL"}, {"measurement": "AUC(0-t)", "setting": "female, human, blood, sc, 7.5 ug, Dose 7.5, mean of Baseline and Week 12 data, read-out: AUC(0-24)", "value": 0.0384, "unit": "ng·h/mL"}, {"measurement": "Cmax", "setting": "female, human, blood, sc, 7.5 ug, Dose 7.5, mean of Baseline and Week 12 data, read-out: Cmax", "value": 0.0301, "unit": "ng/mL"}, {"measurement": "Tmax", "setting": "female, human, blood, sc, 7.5 ug, Dose 7.5, mean of Baseline and Week 12 data, read-out: Tmax", "value": 22.8, "unit": "min"}, {"measurement": "AUC(0-t)", "setting": "female, human, blood, sc, 7.5 ug, Week 12, 7.5 ug, AVG, read-out: AUC(0-4)", "value": 0.0343, "unit": "ng·h/mL"}, {"measurement": "AUC(0-t)", "setting": "female, human, blood, sc, 7.5 ug, Week 12, 7.5 ug, AVG, read-out: AUC(0-24)", "value": 0.0343, "unit": "ng·h/mL"}, {"measurement": "Cmax", "setting": "female, human, blood, sc, 7.5 ug, Week 12, 7.5 ug, AVG, read-out: Cmax", "value": 0.0331, "unit": "ng/mL"}, {"measurement": "Tmax", "setting": "female, human, blood, sc, 7.5 ug, Week 12, 7.5 ug, AVG, read-out: Tmax", "value": 15, "unit": "min"}, {"measurement": "Tmax", "setting": "female, human, blood, sc, 15 ug, Baseline, 15 ug, AVG, read-out: Tmax", "value": 19.8, "unit": "min"}, {"measurement": "AUC(0-t)", "setting": "female, human, blood, sc, 15 ug, Dose 15, mean of Baseline and Week 12 data, read-out: AUC(0-4)", "value": 0.0761, "unit": "ng·h/mL"}, {"measurement": "AUC(0-t)", "setting": "female, human, blood, sc, 15 ug, Dose 15, mean of Baseline and Week 12 data, read-out: AUC(0-24)", "value": 0.092, "unit": "ng·h/mL"}, {"measurement": "Cmax", "setting": "female, human, blood, sc, 15 ug, Dose 15, mean of Baseline and Week 12 data, read-out: Cmax", "value": 0.0466, "unit": "ng/mL"}, {"measurement": "AUC(0-t)", "setting": "female, human, blood, sc, 15 ug, Week 12, 15 ug, AVG, read-out: AUC(0-4)", "value": 0.0779, "unit": "ng·h/mL"}, {"measurement": "AUC(0-t)", "setting": "female, human, blood, sc, 15 ug, Week 12, 15 ug, AVG, read-out: AUC(0-24)", "value": 0.11, "unit": "ng·h/mL"}, {"measurement": "Cmax", "setting": "female, human, blood, sc, 15 ug, Week 12, 15 ug, AVG, read-out: Cmax", "value": 0.0482, "unit": "ng/mL"}, {"measurement": "AUC(0-t)", "setting": "female, human, blood, sc, 30 ug, Dose 30, mean of Baseline and Week 12 data, read-out: AUC(0-4)", "value": 0.123, "unit": "ng·h/mL"}, {"measurement": "AUC(0-t)", "setting": "female, human, blood, sc, 30 ug, Dose 30, mean of Baseline and Week 12 data, read-out: AUC(0-24)", "value": 0.129, "unit": "ng·h/mL"}, {"measurement": "Cmax", "setting": "female, human, blood, sc, 30 ug, Dose 30, mean of Baseline and Week 12 data, read-out: Cmax", "value": 0.0701, "unit": "ng/mL"}, {"measurement": "Tmax", "setting": "female, human, blood, sc, 30 ug, Dose 30, mean of Baseline and Week 12 data, read-out: Tmax", "value": 22.8, "unit": "min"}, {"measurement": "Tmax", "setting": "female, human, blood, sc, 45 ug, Baseline, 45 ug, AVG, read-out: Tmax", "value": 30, "unit": "min"}]}
